The NIST ThermoML archive (doi:10.1021/je200145r)

Test: wn = mass fraction of the nth substance listed
Conditions: 101 kPa, Liquid; for viscosity: Capillary tube (Ostwald / Ubbelohde) method

C1COCCO1 [1,4-dioxane] + CO
Conditions	mass density, 298.15 K [kg/m3]	mass density, 303.15 K [kg/m3]	mass density, 308.15 K [kg/m3]	mass density, 313.15 K [kg/m3]	viscosity, 298.15 K [mPa·s]	viscosity, 303.15 K [mPa·s]	viscosity, 308.15 K [mPa·s]	viscosity, 313.15 K [mPa·s]
w1 = 0.1	811.2	806.4	801.7	796.9	0.55	0.511	0.473	0.432
w1 = 0.2	834.4	828.8	823.4	818.4	0.554	0.517	0.482	0.448
w1 = 0.3	852.5	847.4	842.6	838	0.565	0.527	0.489	0.452
w1 = 0.4	875.1	870.2	865.5	860.6	0.587	0.548	0.508	0.467
